Earlier results, collected in patent US5965741A, “Ortho-substituted aromatic ether compounds and their use in pharmaceutical compositions for pain relief” (Zeneca Limited, priority 1994, dated 1999).

Tested on: EP1 receptors
Details: guinea pig ileum or dog fundus

**Q.** With `CC(=O)NNC(=O)N1Cc2ccccc2Oc2ccc(Cl)cc21` [SC-19220] as the compound, how does the “block of the effect of PGE2” value read?
**A.** blocks the effect of PGE2
